Laboratory results as given in patent publication US10759822B2 (priority 2016, dated 2020).

Columns and labels:
[1] = system: field EPSP in the rat dentate gyrus; conditions: in vivo, ip; cited from earlier work
[2] = mouse, in vivo
[3] = mouse, in vivo; for MRT0-t: Kunming, iv, 1 mg/kg

SMILES | increase in the amplitude of the field EPSP [1] [%] | (AUC0-t)prodrug group/(AUC0-t)prototype drug group [2] | (AUC0-t)prodrug/(AUC0-t)prototype drug [3] | MRT0-t [3] [h]
O=C(c1ccc2nccnc2c1)N1CCCCC1 [CX516, 6-(piperidin-1-yl-carbonyl)quinoxaline] | 9 | – | – | –
CCSS/C(CCOC(=O)CCC(=O)OC1CCC(N(C)C(=O)c2ccc3nonc3c2)CC1)=C(/C)N(C)C=O (stereo not drawn) [Compound 1, Succinic acid anti-4-[(benzo[c][1,2,5]oxadiazole-5-carbonyl)-methyl-amino]-cyclohexyl ester 3-ethyldisulfanyl-4-(formyl-methyl-amino)-pent-3-enyl ester] | – | 0.48 | 1.55 | –
CCCSS/C(CCOC(=O)CCC(=O)OC1CCC(N(C)C(=O)c2ccc3nonc3c2)CC1)=C(/C)N(C)C=O (stereo not drawn) [Compound 2, Succinic acid anti-4-[(benzo[c][1,2,5]oxadiazole-5-carbonyl)-methyl-amino]-cyclohexyl ester 3-propyldisulfanyl-4-(formyl-methyl-amino)-pent-3-enyl ester] | – | 0.49 | 1.72 | –
C/C(=C(\CCOC(=O)CCC(=O)OC1CCC(N(C)C(=O)c2ccc3nonc3c2)CC1)SSC(C)C)N(C)C=O (stereo not drawn) [Compound 3, Succinic acid anti-4-[(benzo[c][1,2,5]oxadiazole-5-carbonyl)-methyl-amino]-cyclohexyl ester 3-isopropyldisulfanyl-4-(formyl-methyl-amino)-pent-3-enyl ester] | – | 0.62 | 1.77 | –
CCCCSS/C(CCOC(=O)CCC(=O)OC1CCC(N(C)C(=O)c2ccc3nonc3c2)CC1)=C(/C)N(C)C=O (stereo not drawn) [Compound 4, Succinic acid anti-4-[(benzo[c][1,2,5]oxadiazole-5-carbonyl)-methyl-amino]-cyclohexyl ester 3-butyldisulfanyl-4-(formyl-methyl-amino)-pent-3-enyl ester] | – | 0.68 | 1.56 | –
C/C(=C(\CCOC(=O)CCC(=O)OC1CCC(N(C)C(=O)c2ccc3nonc3c2)CC1)SSCC(C)C)N(C)C=O (stereo not drawn) [Compound 5, Succinic acid anti-4-[(benzo[c][1,2,5]oxadiazole-5-carbonyl)-methyl-amino]-cyclohexyl ester 3-isobutyldisulfanyl-4-(formyl-methyl-amino)-pent-3-enyl ester] | – | 0.67 | 1.70 | –
CCCCCSS/C(CCOC(=O)CCC(=O)OC1CCC(N(C)C(=O)c2ccc3nonc3c2)CC1)=C(/C)N(C)C=O (stereo not drawn) [Compound 6, Succinic acid anti-4-[(benzo[c][1,2,5]oxadiazole-5-carbonyl)-methyl-amino]-cyclohexyl ester 3-pentyldisulfanyl-4-(formyl-methyl-amino)-pent-3-enyl ester] | – | 0.62 | 1.88 | –
C/C(=C(\CCOC(=O)CCC(=O)OC1CCC(N(C)C(=O)c2ccc3nonc3c2)CC1)SSCCC(C)C)N(C)C=O (stereo not drawn) [Compound 7, Succinic acid anti-4-[(benzo[c][1,2,5]oxadiazole-5-carbonyl)-methyl-amino]-cyclohexyl ester 3-isopentyldisulfanyl-4-(formyl-methyl-amino)-pent-3-enyl ester] | – | 0.53 | 1.49 | –
C/C(=C(\CCOC(=O)CCC(=O)OC1CCC(N(C)C(=O)c2ccc3nonc3c2)CC1)SSCc1ccccc1)N(C)C=O (stereo not drawn) [Compound 8, Succinic acid anti-4-[(benzo[c][1,2,5]oxadiazole-5-carbonyl)-methyl-amino]-cyclohexyl ester 3-benzyldisulfanyl-4-(formyl-methyl-amino)-pent-3-enyl ester] | – | 0.62 | 1.73 | –
CCSS/C(CCOC(=O)CCCC(=O)OC1CCC(N(C)C(=O)c2ccc3nonc3c2)CC1)=C(/C)N(C)C=O (stereo not drawn) [Compound 9, Pentanedioic acid anti-4-[(benzo[c][1,2,5]oxadiazole-5-carbonyl)-methyl-amino]-cyclohexyl ester 3-ethyldisulfanyl-4-(formyl-methyl-amino)-pent-3-enyl ester] | – | 0.51 | 1.74 | –
CCCSS/C(CCOC(=O)CCCC(=O)OC1CCC(N(C)C(=O)c2ccc3nonc3c2)CC1)=C(/C)N(C)C=O (stereo not drawn) [Compound 10, Pentanedioic acid anti-4-[(benzo[c][1,2,5]oxadiazole-5-carbonyl)-methyl-amino]-cyclohexyl ester 3-propyldisulfanyl-4-(formyl-methyl-amino)-pent-3-enyl ester] | – | 0.47 | 1.86 | –
C/C(=C(\CCOC(=O)CCCC(=O)OC1CCC(N(C)C(=O)c2ccc3nonc3c2)CC1)SSC(C)C)N(C)C=O (stereo not drawn) [Compound 11, Pentanedioic acid anti-4-[(benzo[c][1,2,5]oxadiazole-5-carbonyl)-methyl-amino]-cyclohexyl ester 3-isopropyldisulfanyl-4-(formyl-methyl-amino)-pent-3-enyl ester] | – | 0.72 | 1.92 | –
CCCCSS/C(CCOC(=O)CCCC(=O)OC1CCC(N(C)C(=O)c2ccc3nonc3c2)CC1)=C(/C)N(C)C=O (stereo not drawn) [Compound 12, Pentanedioic acid anti-4-[(benzo[c][1,2,5]oxadiazole-5-carbonyl)-methyl-amino]-cyclohexyl ester 3-butyldisulfanyl-4-(formyl-methyl-amino)-pent-3-enyl ester] | – | 0.46 | 1.92 | –
C/C(=C(\CCOC(=O)CCCC(=O)OC1CCC(N(C)C(=O)c2ccc3nonc3c2)CC1)SSCC(C)C)N(C)C=O (stereo not drawn) [Compound 13, Pentanedioic acid anti-4-[(benzo[c][1,2,5]oxadiazole-5-carbonyl)-methyl-amino]-cyclohexyl ester 3-isobutyldisulfanyl-4-(formyl-methyl-amino)-pent-3-enyl ester] | – | 0.60 | 1.96 | –
CCCCCSS/C(CCOC(=O)CCCC(=O)OC1CCC(N(C)C(=O)c2ccc3nonc3c2)CC1)=C(/C)N(C)C=O (stereo not drawn) [Compound 14, Pentanedioic acid anti-4-[(benzo[c][1,2,5]oxadiazole-5-carbonyl)-methyl-amino]-cyclohexyl ester 3-pentyldisulfanyl-4-(formyl-methyl-amino)-pent-3-enyl ester] | – | 0.65 | 1.98 | –
C/C(=C(\CCOC(=O)CCCC(=O)OC1CCC(N(C)C(=O)c2ccc3nonc3c2)CC1)SSCc1ccccc1)N(C)C=O (stereo not drawn) [Compound 16, Pentanedioic acid anti-4-[(benzo[c][1,2,5]oxadiazole-5-carbonyl)-methyl-amino]-cyclohexyl ester 3-benzyldisulfanyl-4-(formyl-methyl-amino)-pent-3-enyl ester] | – | 0.41 | 1.86 | –
CCSS/C(CCOC(=O)CCCC(=O)OC1CCC(N(C)C(=O)c2ccc3nonc3c2)CC1)=C(/C)N(C=O)CC (stereo not drawn) [Compound 17, Pentanedioic acid anti-4-[(benzo[c][1,2,5]oxadiazole-5-carbonyl)-methyl-amino]-cyclohexyl ester 3-ethyldisulfanyl-4-(formyl-ethyl-amino)-pent-3-enyl ester] | – | 0.61 | 1.55 | –
CCCN(C=O)/C(C)=C(/CCOC(=O)CCCC(=O)OC1CCC(N(C)C(=O)c2ccc3nonc3c2)CC1)SSCC (stereo not drawn) [Compound 18, Pentanedioic acid anti-4-[(benzo[c][1,2,5]oxadiazole-5-carbonyl)-methyl-amino]-cyclohexyl ester 3-ethyldisulfanyl-4-(formyl-propyl-amino)-pent-3-enyl ester] | – | 0.73 | 1.70 | –
C/C(=C(\CCOC(=O)CCCC(=O)OC1CCC(N(C)C(=O)c2ccc3nonc3c2)CC1)SSCCC(C)C)N(C=O)CC(=O)OCC1OC(O)C(O)C(O)C1O [Compound 19, Pentanedioic acid anti-4-[(benzo[c][1,2,5]oxadiazole-5-carbonyl)-methyl-amino]-cyclohexyl ester 3-isopentyldisulfanyl-4-[formyl-(D-glucos-6-yl-carbonylmethyl)-amino]-pent-3-enyl ester] | – | 0.73 | 1.41 | –
CCSS/C(CCOC(=O)CCCC(=O)OC1CCC(N(C)C(=O)c2ccc3nonc3c2)CC1)=C(/C)N(C=O)CC(=O)OCC1OC(O)C(O)C(O)C1O [Compound 20, Pentanedioic acid anti-4-[(benzo[c][1,2,5]oxadiazole-5-carbonyl)-methyl-amino]-cyclohexyl ester 3-ethyldisulfanyl-4-[formyl-(D-glucos-6-yl-carbonylmethyl)-amino]-pent-3-enyl ester] | – | 0.82 | 1.65 | –
CCCCCCSS/C(CCOC(=O)CCCC(=O)OC1CCC(N(C)C(=O)c2ccc3nonc3c2)CC1)=C(/C)N(C=O)CC(=O)OCC1OC(O)C(O)C(O)C1O [Compound 21, Pentanedioic acid anti-4-[(benzo[c][1,2,5]oxadiazole-5-carbonyl)-methyl-amino]-cyclohexyl ester 3-hexyldisulfanyl-4-[formyl-(D-glucos-6-yl-carbonylmethyl)-amino]-pent-3-enyl ester] | – | – | 1.68 | 1.91
CCSS/C(CCOC(=O)CCCC(=O)OC1CCC(N(C)C(=O)c2ccc3nonc3c2)CC1)=C(/C)N(C=O)CC(=O)OCC(O)C1OC(=O)C(O)=C1O (stereo not drawn) [Compound 22, Pentanedioic acid anti-4-[(benzo[c][1,2,5]oxadiazole-5-carbonyl)-methyl-amino]-cyclohexyl ester 3-ethyldisulfanyl-4-{[2-(3,4-dihydroxy-5-oxo-2,5-dihydro-furan-2-yl)-2-hydroxy-ethoxycarbonylmethyl]-formyl-amino}-pent-3-enyl ester] | – | – | 1.82 | 2.00
